From ChEMBL document CHEMBL1201862, “PubChem BioAssay data set” (2004)
Activity calls are given as the source filed them.

Experiments:
[1] = target: T1, Oxysterols receptor LXR-beta (Homo sapiens, UniProt P55055); type: functional, cell-based
[2] = target: T2, Short transient receptor potential channel 4 (Mus musculus, UniProt Q9QUQ5); experiment: mouse TRPC4 channel inhibitors, dose response, cell-based, HEK293 TRPC4/mu-opioid, Fluo-4 calcium (AID 434942); type: functional;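 further: potency of inhibitors blocking the TRPC4 calcium response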
T2 sequence (Q9QUQ5 whole entry): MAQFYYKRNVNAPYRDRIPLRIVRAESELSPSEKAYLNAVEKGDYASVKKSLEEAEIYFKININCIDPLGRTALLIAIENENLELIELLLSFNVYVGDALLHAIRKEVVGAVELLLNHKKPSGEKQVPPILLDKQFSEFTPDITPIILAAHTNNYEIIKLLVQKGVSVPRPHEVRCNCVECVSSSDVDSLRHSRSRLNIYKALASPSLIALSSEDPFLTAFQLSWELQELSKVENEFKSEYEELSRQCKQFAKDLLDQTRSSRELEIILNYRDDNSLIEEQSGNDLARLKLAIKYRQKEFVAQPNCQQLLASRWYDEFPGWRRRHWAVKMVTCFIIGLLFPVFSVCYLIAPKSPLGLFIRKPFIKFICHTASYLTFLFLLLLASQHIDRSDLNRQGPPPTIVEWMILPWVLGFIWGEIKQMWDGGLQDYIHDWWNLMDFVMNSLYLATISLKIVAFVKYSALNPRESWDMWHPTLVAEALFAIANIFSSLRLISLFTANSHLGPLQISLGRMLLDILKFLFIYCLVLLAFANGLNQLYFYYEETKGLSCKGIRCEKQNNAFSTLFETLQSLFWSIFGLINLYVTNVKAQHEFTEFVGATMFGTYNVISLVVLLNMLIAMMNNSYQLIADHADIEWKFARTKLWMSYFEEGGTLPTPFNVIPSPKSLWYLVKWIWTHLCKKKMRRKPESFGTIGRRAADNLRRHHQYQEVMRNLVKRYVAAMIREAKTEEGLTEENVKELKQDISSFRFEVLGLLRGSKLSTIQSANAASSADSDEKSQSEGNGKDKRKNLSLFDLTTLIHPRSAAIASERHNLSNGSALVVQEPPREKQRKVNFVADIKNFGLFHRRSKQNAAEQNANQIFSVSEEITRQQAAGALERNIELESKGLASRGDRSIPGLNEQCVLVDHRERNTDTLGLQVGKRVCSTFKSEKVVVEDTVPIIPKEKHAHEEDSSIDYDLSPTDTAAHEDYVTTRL

[3] = HepG2 cell cytotoxicity, dose response, cytotoxicity control, ATP luminescence, cherry-pick, activator set 2 (AID 1053143); type: functional, cell-based
[4] = A549 cell cytotoxicity, dose response, cytotoxicity control, plate reader, cherry-pick, antagonist series (AID 743412); type: functional, cell-based
[5] = LGR2 antagonists, dose response, cell-based, HEK293, CRE-luciferase reporter, cherry pick (AID 743342); type: functional
[6] = target: T3, NAD-dependent protein deacylase sirtuin-5, mitochondrial (Homo sapiens, UniProt Q9NXA8); experiment: SIRT5 deacylase inhibitors, dose response, biochemical, fluorescence imaging, cherry-pick, set 6 (AID 720597)
[7] = target: T3, NAD-dependent protein deacylase sirtuin-5, mitochondrial; experiment: SIRT5 desuccinylase inhibitors, dose response, biochemical, fluorescence imaging, cherry-pick, set 5 (AID 720591);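 further: desuccinylation of succinyl peptide AMC substrate read as fluorescence after trypsin release; potency of inhibitors that lower fluorescence and may act on trypsin instead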
[8] = target: T4, Disintegrin and metalloproteinase domain-containing protein 17 (Homo sapiens, UniProt P78536); experiment: exosite inhibitors of ADAM17, dose response, biochemical (AID 743260)
[9] = target: T5, Lysine-specific demethylase 4C (Homo sapiens, UniProt Q9H3R0); experiment: GASC-1 (JMJD2C) histone demethylase inhibitors, dose response, biochemical, DELFIA europium, cherry-picked samples (AID 488835); type: functional
T5 sequence (Q9H3R0 whole entry): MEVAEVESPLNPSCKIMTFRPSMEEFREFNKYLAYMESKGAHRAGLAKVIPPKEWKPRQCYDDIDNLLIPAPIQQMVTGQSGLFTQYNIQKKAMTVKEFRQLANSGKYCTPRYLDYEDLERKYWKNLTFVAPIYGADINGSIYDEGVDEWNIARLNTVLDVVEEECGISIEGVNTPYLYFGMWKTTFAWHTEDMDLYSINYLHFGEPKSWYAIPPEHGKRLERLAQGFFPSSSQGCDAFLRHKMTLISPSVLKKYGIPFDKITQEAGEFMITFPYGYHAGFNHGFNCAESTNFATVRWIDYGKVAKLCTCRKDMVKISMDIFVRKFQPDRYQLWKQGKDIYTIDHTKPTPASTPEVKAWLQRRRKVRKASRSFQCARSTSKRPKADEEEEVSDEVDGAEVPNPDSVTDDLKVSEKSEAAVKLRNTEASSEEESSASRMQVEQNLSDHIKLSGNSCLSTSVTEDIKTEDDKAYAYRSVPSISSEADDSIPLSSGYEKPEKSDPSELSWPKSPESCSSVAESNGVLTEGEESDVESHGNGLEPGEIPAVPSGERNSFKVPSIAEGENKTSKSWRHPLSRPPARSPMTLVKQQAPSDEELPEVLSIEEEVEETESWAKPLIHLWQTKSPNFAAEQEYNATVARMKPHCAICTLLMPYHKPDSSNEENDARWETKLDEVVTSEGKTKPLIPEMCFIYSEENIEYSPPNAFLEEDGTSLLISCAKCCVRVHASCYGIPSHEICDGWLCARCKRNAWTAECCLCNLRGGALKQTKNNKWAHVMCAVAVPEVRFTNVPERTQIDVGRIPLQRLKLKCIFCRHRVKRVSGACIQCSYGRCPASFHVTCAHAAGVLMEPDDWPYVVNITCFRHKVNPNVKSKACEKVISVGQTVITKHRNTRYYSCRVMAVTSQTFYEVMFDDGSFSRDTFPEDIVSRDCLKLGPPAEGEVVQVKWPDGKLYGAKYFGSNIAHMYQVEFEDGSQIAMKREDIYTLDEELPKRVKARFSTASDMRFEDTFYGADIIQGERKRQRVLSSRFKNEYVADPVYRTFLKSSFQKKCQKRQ

[10] = target: Mu-type opioid receptor (Homo sapiens, UniProt P35372); type: functional, cell-based;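 further: U2OS cells with beta-arrestin recruitment to OPRM1 by beta-gal complementation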
[11] = target: T6, DNA repair protein RAD52 homolog (Homo sapiens, UniProt P43351); type: functional, biochemical
T6 sequence (P43351 whole entry): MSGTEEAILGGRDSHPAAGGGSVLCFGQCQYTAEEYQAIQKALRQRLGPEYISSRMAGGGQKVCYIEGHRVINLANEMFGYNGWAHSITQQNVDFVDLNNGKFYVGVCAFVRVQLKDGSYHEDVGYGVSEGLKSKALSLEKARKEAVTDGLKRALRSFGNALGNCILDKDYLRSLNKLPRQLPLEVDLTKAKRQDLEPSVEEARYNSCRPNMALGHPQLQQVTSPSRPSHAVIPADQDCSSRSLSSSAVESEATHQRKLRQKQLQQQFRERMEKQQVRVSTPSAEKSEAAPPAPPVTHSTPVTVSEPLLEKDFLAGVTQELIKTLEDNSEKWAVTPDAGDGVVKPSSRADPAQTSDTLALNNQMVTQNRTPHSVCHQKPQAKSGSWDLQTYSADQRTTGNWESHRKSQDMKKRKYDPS

[12] = target: 5-hydroxytryptamine receptor 2A (Mus musculus, UniProt P35363); type: functional, cell-based;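 further: CHO-K1 cells with tagged receptor and beta-arrestin; agonist potency measured as compound-induced activation of the receptor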
[13] = target: ADP-ribosylation factor GTPase-activating protein 1 (Rattus norvegicus, UniProt Q62848); experiment: Fluorescence polarization-based biochemical high throughput dose response screening assay to identify inhibitors of ADP-ribosylation factor GTPase activating protein 1 (ARFGAP1).; type: functional
[14] = target: Arf-GAP with SH3 domain, ANK repeat and PH domain-containing protein 1 (Homo sapiens, UniProt Q9ULH1); type: functional;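 further: biochemical fluorescence polarization dose–response screen measuring inhibition of ASAP1; ASAP1 GAP domain stimulating GTP hydrolysis by truncated human ARF1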
[15] = T. cruzi intracellular amastigote growth inhibition, dose response, imaging, CA-I/72 strain, bovine embryo skeletal muscle, dry powder (AID 651885); type: functional, cell-based
[16] = T. cruzi growth inhibition in host cells, dose response, cell-based, plate reader, dry powder, set 2 (AID 652275); type: functional
[17] = target: Beta-galactosidase (Escherichia coli, UniProt Q8VNN2); experiment: Dose response counterscreen for EBI2 assay utilizing the enzyme, b-galactosidase.; type: functional
[18] = cells
[19] = target: Major prion protein (Homo sapiens, UniProt P04156); type: functional, cell-based
[20] = target: Fatty acid synthase (Homo sapiens, UniProt P49327); experiment: FAS thioesterase domain inhibitors, SAR follow-up, biochemical, endpoint fluorescence intensity, powder samples (AID 652164); type: functional
[21] = target: T4, Disintegrin and metalloproteinase domain-containing protein 17; experiment: ADAM17 protease inhibitors, dose response, counter-screen for ADAM10 exosite inhibitor project, biochemical, quenched FRET substrate (AID 743253)
[22] = ADAM10 inhibitors, peptide cleavage, dose response, biochemical, QFRET (AID 743254);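 further: ADAM10 enzyme with the DM2 quenched FRET peptide as substrate; EDANS fluorescence gain as the protease cuts the substrate; inhibitor potency against ADAM10 proteolytic activity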
[23] = test system: HeLa; experiment: HeLa cell cytotoxicity, dose response, cytotoxicity control, ATP luminescence, cherry-pick samples (AID 687004); type: functional, cell-based; conditions: Homo sapiens
[24] = target: Protein Wnt-3a (Mus musculus, UniProt P27467); experiment: SAR analysis of small molecule antagonists of Gli-SUFU in a Wnt3a luminescent reporter assay.; type: functional
[25] = HEK293 cell cytotoxicity, dose response, cytotoxicity control, cherry-picks, set 5 (AID 1053117); type: functional, cell-based
[26] = inhibitors of fibronectin matrix deposition, dose response, AH1F cells, Alexa488-FN fluorescence, cherry-picks (AID 1035475); type: functional, cell-based
[27] = target: T1, Oxysterols receptor LXR-beta; type: functional, cell-based; remark: listed apart in the source
[28] = cells; remark: listed apart in the source
[29] = inhibitors of non-replicating M. tuberculosis, dose response, luciferase, dry powder (AID 651619); type: functional; conditions: Mycobacterium tuberculosis
[30] = inhibitors of non-replicating M. tuberculosis, dose response, luciferase, dry powder (AID 651620); type: functional; conditions: Mycobacterium tuberculosis
[31] = Vero 76 cell cytotoxicity, dose response, cytotoxicity control, set 3 (AID 602439); type: functional; conditions: Venezuelan equine encephalitis virus
[32] = A Cell-Based Confirmatory Screen for Compounds that Inhibit VEEV, TC-83 (3).; type: functional
[33] = HEK293 Cytotoxicity Assay Measured in Cell-Based System Using Plate Reader - 7071-01_Inhibitor_Dose_CherryPick_Activity_Set2.; type: functional
[34] = test system: HEK293; experiment: HEK293T cell cytotoxicity, dose response, cytotoxicity control, ATP luminescence, cherry-pick samples (AID 687005); type: functional, cell-based; conditions: Homo sapiens;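 further: cells exposed to compound for 48 hours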

Nc1c(OS(=O)(=O)c2ccccc2)cccc1OS(=O)(=O)c1ccccc1
EC50 [1]: > 67.5 µM (inactive)

Cc1nc2ccccc2n1CC(O)COc1ccccc1Cl (stereo not given)
EC50 [2]: 3.35 µM (active)
AC50 [3]: > 52 µM (inactive)

C[C@H](CO)N1C[C@H](C)[C@H](CN(C)C(=O)Nc2ccccc2)OCCCC[C@H](C)Oc2ccc(NC(=O)CCC(F)(F)F)cc2C1=O
AC50 [4]: > 52 µM (inactive)
AC50 [5]: 13.9 µM (active)

CCC(=O)N1CC[C@@H]2[C@@H](CO)Nc3ccc(C#Cc4cccnc4)cc3[C@@H]21
AC50 [6]: > 30 µM (inactive)

O=C(CCC(=O)OCc1ccc(Br)cc1)Nc1ccccc1
AC50 [7]: > 30 µM (inactive)

COc1cccc(C2C(C#N)=C(N)Oc3c2oc(CO)cc3=O)c1 (stereo not given)
IC50 [8]: > 69.5 µM (inactive)

NCC(O)c1cc(O)c(O)cc1F (stereo not given)
AC50 [9]: 11.2 µM (active)
EC50 [10]: 92.6 µM (inactive)
AC50 [11]: 6.44 µM (active)
EC50 [12]: 0.724 µM (active)

COC(=O)CSc1nnc2n(-c3ccc(OC)cc3)c(=O)c3c4c(sc3n12)CCCCC4
EC50 [2]: 1.5 µM (active)
IC50 [13]: 38.1 µM (inactive)
IC50 [14]: 28.2 µM (inactive)

CC(C)N1C[C@H](C)[C@@H](CN(C)Cc2ccc(Cl)cc2)Oc2c(NC(=O)c3ccncc3)cccc2C1=O
IC50 [15]: 0.00107 µM (active)
AC50 [16]: 0.000541 µM (active)

CS(=O)(=O)N(CC(=O)NCCSc1ccc(Cl)cc1)c1ccc2c(c1)OCO2
IC50 [17]: > 80 µM (inactive)

O=C(C1=C(O)C(=O)N(CCN2CCOCC2)C1c1cccc(F)c1)c1cc2ccccc2o1 (stereo not given)
IC50 [18]: > 138 µM (inactive)
IC50 [19]: 6.77 µM (active)

CC1CCN(S(=O)(=O)c2ccc(-c3csc(NC(=O)C4CC4)n3)cc2)CC1
IC50 [20]: > 80 µM (inactive)

O=C(Nc1ccc2c(c1)OCCO2)C(c1ccnc2ccccc12)N1CCC(Cc2ccccc2)CC1 (stereo not given)
IC50 [21]: > 69.5 µM (inactive)
IC50 [22]: > 69.5 µM (inactive)

O=C(CN1CCOCC1)N1CC[C@@H]2[C@@H](CO)Nc3ccc(-c4ccccc4F)cc3[C@@H]21
AC50 [23]: < 0.195 µM (active)

O=C(Nc1cc(N2CCCC2)ncn1)c1cccc(F)c1
IC50 [24]: > 21.8 µM (inactive)

COc1cccc(-c2ccc3c(c2)[C@@H]2[C@@H](CCN2S(=O)(=O)c2cccc(OC)c2)[C@H](CO)N3)c1
AC50 [25]: 30.5 µM (active)
AC50 [26]: 57.8 µM (active)

Fc1cccc(F)c1/C=N/Nc1ccccn1
EC50 [27]: > 67.5 µM (inactive)
EC50 [28]: > 67.5 µM (inactive)

CSc1nnc(-c2ccccc2)o1
IC90 [29]: 125 µM (active)
IC90 [30]: 125 µM (active)

Cc1cc(Cc2cc(C)cc(C(C)(C)C)c2O)c(O)c(Cc2cc(C)cc(C(C)(C)C)c2O)c1
CC50 [31]: 43.1 µM (active)
IC50 [32]: > 25 µM (active)

Cc1ccc(S(=O)(=O)N2CC[C@@H]3[C@H]2c2cc(-c4ccccc4F)ccc2N[C@@H]3CO)cc1
AC50 [33]: > 47 µM (inactive)
AC50 [34]: > 47 µM (inactive)
